“Also recorded” adds a separate entry of the source.
How the values were obtained:
[1] = test system: human SMA iPSC-derived motor neurons; experiment: Degeneration of human SMA iPSC-derived motor neurons (TuJ1 and Isl1-positive motor neurons as percentage of DAPI positive cells); assay type: cell-based; conditions: week 3 to week 6 in culture
Excerpt: FIGS. 8A-8M: Inhibition of Cdk5 signaling pathway decreases the degeneration of human SMA iPSC-derived motor neurons. (A-L) Immunostaining of human iPSC-derived motor neurons with antibodies recognizing neuronal marker TuJ1 (green in A-L), motor neuron marker Isl1 (red in A-L), and nucleus marker DAPI (blue in A-L). […] (M) Quantification of TuJ1 and Isl1-positive motor neurons as a percentage of all DAPI positive cells in a human iPSC model of SMA treated with inhibitors of Cdk5 signaling. […] Data are from four independent experiments and are mean±SEM. ** P<0.01, *** p<0.001, **** P<0.0001, Student's t test.
(§1) Human SMA iPSC and Mouse Motor Neuron Culture. Human iPSCs were generated and differentiated as described in the Examples. Briefly, primary fibroblasts were isolated from de-identified type I SMA patients and their unaffected relatives, infected with lentiviral constructs expressing OCT4, SOX2, NANOG, and LIN28 or episomally expressed reprogramming plasmids to generate iPSCs. Retinoic acid, sonic hedgehog, cAMP, ascorbic acid, brain-derived neurotrophic factor (BDNF) and glial cell line-derived neurotrophic factor (GDNF) were used to induce iPSC spheres to differentiate into motor neurons. […] Cell death was detected by the in situ cell death detection TMR red TUNEL (Terminal Transferase dUTP Nick End Labeling) kit. […]

SMA motor neurons = experiment: TUNEL staining of degenerating primary spinal motor neurons cultured from Δ7 SMA mice; assay type: cell-based, mouse; conditions: 300 nM applied at 3 DIV, assayed on 6 DIV
Excerpt: FIGS. 4A-4D: Mitigating aberrant Cdk5 activation ameliorates the degeneration of motor neurons from SMA mice. (A-B) Primary spinal motor neurons from SMA mice cultured 6 days in vitro (6 DIV) were stained by antibodies recognizing motor neuron marker Isl1 (magenta in A, B) and pan-neuronal marker TuJ1 (green in A). DAPI nuclear staining marks all cells in the culture. (C) Western blot analysis of Cdk5 knockdown in motor neurons treated with shRNA. […] Motor neurons were infected with lentivirus on 4 DIV and cultured for another 3 days before Western blot analysis. Two examples of Cdk5 shRNA knockdown were shown, with the expression of GAPDH as loading control. (D) Quantification of TUNEL+ degenerating motor neurons from WT and SMA mice. […]
Human SMA iPSC and Mouse Motor Neuron Culture. […] Cell death was detected by the in situ cell death detection TMR red TUNEL (Terminal Transferase dUTP Nick End Labeling) kit. […]
Mitigating Aberrant Cdk5 Activation Reduces the Degeneration of SMA Mouse Motor Neurons. Experiments were conducted during development of embodiments herein to determine whether reducing aberrant Cdk5 activation in SMA conditions serve to ameliorate motor neuron degeneration; the degeneration of motor neurons cultured from Δ7 SMA mice and control mice by TUNEL staining was monitored. […]

SMA motor neuron = experiment: Dosage effect of BML259 on primary mouse motor neurons: toxic effect (cell morphology and viability, bright field microscope); assay type: cell-based; conditions: two days
Excerpt: (§2) Human SMA iPSC and Mouse Motor Neuron Culture. Human iPSCs were generated and differentiated as described in the Examples. Briefly, primary fibroblasts were isolated from de-identified type I SMA patients and their unaffected relatives, infected with lentiviral constructs expressing OCT4, SOX2, NANOG, and LIN28 or episomally expressed reprogramming plasmids to generate iPSCs. Retinoic acid, sonic hedgehog, cAMP, ascorbic acid, brain-derived neurotrophic factor (BDNF) and glial cell line-derived neurotrophic factor (GDNF) were used to induce iPSC spheres to differentiate into motor neurons. Primary neurons from mouse spinal cords were cultured in Neurobasal (Life Technologies) supplemented with B27 (Life Technologies) as described. Briefly, spinal cords from E12.5 mouse embryos were dissected out and dissociated with 0.25% trypsin. After enriching motor neurons with Optiprep density gradient centrifugation and BSA cushion, cells were seeded on glass cover slips coated with 20 μg/ml Poly-L-Lysine (PLL) (Sigma) and 8 μg/ml Laminin (Sigma), and grown in the presence of […] (PeproTech). Cell death was detected by the in situ cell death detection TMR red TUNEL (Terminal Transferase dUTP Nick End Labeling) kit. Cdk5 inhibitor BML259 (300 nM) (Cayman Chemical) and calpain inhibitor Calpeptin (10 μM) (Tocris Bioscience) were applied from week 3 to 6 into iPSC motor neuron medium to inhibit Cdk5 signaling.
(§3) Different concentrations of Cdk5 inhibitor BML259 were applied on primary motor neurons from wild type and SMA mice. After two days, treated and untreated cells were compared to identify potential toxic effects of causing additional cell death by checking cell morphology and viability using a bright field microscope.

WT motor neuron = experiment: as above; assay type: cell-based; conditions: two days
Excerpt: as §2, §3

SMA iPSC motor neurons [2] = experiment: iPSC motor neuron degeneration measured by TUNEL; assay type: cell-based, human; conditions: 300 nM
Method: (§4) Calpeptin (10 μM) (A) was used to inhibit calpain activity, and 300 nM BML259 (B) was used to inhibit Cdk5 activity in control and SMA iPSC motor neurons. Data are from four independent experiments and are mean±SEM. ** p<0.01, *** p<0.001, Student's t test. […] Levels of different mRNA in each sample are calculated as relative to gapdh mRNA. The level of gapdh mRNA is presented as relative to the average of four samples. The measurement of each sample was repeated three times and four sets of mice were used. Results are mean±SEM. ** p<0.01, Student's t test.
as §1

[3] = test system: SMA non-integrating iPSC-derived motor neurons; experiment: Motor neuron degeneration in non-integrating iPSC SMA model (Isl1+ and TuJ1+ motor neurons as percentage of DAPI-positive cells); assay type: cell-based, human; conditions: 10 μM
Excerpt: FIGS. 9A-C: (A) The increase of Cdk5 kinase activity in E18.5 SMA mouse spinal cord is not significant. Endogenous Cdk5 was immunoprecipitated from spinal cord lysates of E18.5 WT and SMA mice and measured kinase activity of phosphorylating Histone H1 with ^32P-γ-ATP. The same levels of Cdk5 and purified Histone H1 used in kinase assay reactions were monitored by Western blotting. Data are mean±SEM, Student's t test (n=12, P=0.0875). […] Endogenous Cdk5 was immunoprecipitated from motor neurons differentiated from WT and SMA non-integrating iPSCs. Kinase activities were quantified by the phosphorylation of Histone H1 with ^32P-γ-ATP. The same levels of Cdk5 and Histone H1 were monitored by Western blot. Data are mean±SEM, Student's t test (n=12, P<0.0001). […] Calpain inhibitor Calpeptin (10 μM) was applied to WT and SMA non-integrating iPSC-derived motor neurons. The number of Isl1+ and TuJ1+motor neurons as a percentage of all DAPI-positive cells was quantified from 1490 motor neurons in four independent experiments and are mean±SEM. ** p=0.0045, Student's t test.
Human SMA iPSC and Mouse Motor Neuron Culture. Human iPSCs were generated and differentiated as described in the Examples. […] Cell death was detected by the in situ cell death detection TMR red TUNEL (Terminal Transferase dUTP Nick End Labeling) kit. […]

SMA iPSC motor neurons [4] = experiment: iPSC motor neuron degeneration measured by choline acetyltransferase (ChAT) staining; assay type: cell-based, human; conditions: 10 μM
Method: as §4, §1

Row | iPSC motor neuron degeneration by ChAT staining (SMA iPSC motor neurons [4]) | Compound | Degeneration of motor neurons (TuJ1 and Isl1-positive, % of DAPI positive cells) in human SMA iPSC culture ([1]; 300 nM) | TUNEL+ degenerating motor neurons from SMA mice (SMA motor neurons) | Toxic Effect on SMA motor neuron (SMA motor neuron; 50 nM) | Toxic Effect on SMA motor neuron (SMA motor neuron; 150 nM) | Toxic Effect on SMA motor neuron (SMA motor neuron; 300 nM) | Toxic Effect on SMA motor neuron (SMA motor neuron; 450 nM) | Toxic Effect on SMA motor neuron (SMA motor neuron; 600 nM) | Toxic Effect on WT motor neuron (WT motor neuron; 50 nM) | Toxic Effect on WT motor neuron (WT motor neuron; 150 nM) | Toxic Effect on WT motor neuron (WT motor neuron; 300 nM) | Toxic Effect on WT motor neuron (WT motor neuron; 450 nM) | Toxic Effect on WT motor neuron (WT motor neuron; 600 nM) | iPSC motor neuron degeneration by TUNEL (SMA iPSC motor neurons [2]) | Degeneration of motor neurons (TuJ1 and Isl1-positive, % of DAPI positive cells) in human SMA iPSC culture ([1]; 10 μM) | Motor neuron degeneration in non-integrating iPSC SMA model [3]
1 |  | CC(C)c1cnc(NC(=O)Cc2ccccc2)s1 [BML259, N-(5-isopropyl-thiazol-2-yl)phenylacetamide] | alleviated the degeneration of Isl1-positive motor neurons; also recorded: significantly reduces the degeneration of motor neurons | significantly reduced the degeneration of SMA motor neurons | no | no | no | strong | very strong | no | no | no | weak | strong | reduces iPSC motor neuron degeneration |  | 
2 | reduces iPSC motor neuron degeneration | CCCC[C@@H](C=O)NC(=O)[C@H](CC(C)C)NC(=O)OCc1ccccc1 [Calpeptin] |  |  |  |  |  |  |  |  |  |  |  |  |  | alleviated the degeneration of Isl1-positive motor neurons; also recorded: significantly reduces the degeneration of motor neurons | significantly reduces motor neuron degeneration
